Marks after values point to notes of the source that are not given here.
Experiments:
[1] = system: cerebral hemorrhage in rats induced by collagenase; test: ICH model induced by collagenase: NO in brain tissue by nitrate reductase method; assay type: in vivo, Wistar rats
From the text: (§1) Rats in each group were anesthetized by chloral hydrate, decollated rapidly and the brain take were taken out. The brain tissue around the hole was cut and procured, weighed precisely, and made into a 10% tissue homogenate using a glass homogenizer in an ice bath environment with physiological saline as homogenized medium, the supernatant of which was taken to be determined the content of NO by nitrate reductase method.

[2] = system: cerebral hemorrhage in rats induced by collagenase; test: ICH model induced by collagenase: histopathological observation; assay type: in vivo, Wistar rats
Procedure: Influence of piperphentonamine hydrochloride on pathological morphology of cerebral hemorrhage in rats was observed. Each group animals were selected randomly, anesthetized deeply by chloral hydrate at predetermined time point, decollated and the brain were taken out rapidly, then, the brain tissue slices with hematoma (about 5 mm) were cut, and put into 10% formaldehyde solution immediately, fixed for 24 h followed by dehydration by graded ethanol, transparentizing by xylene, immersing in paraffin, embedding, slicing (5 μm), HE staining and sealing. The pathological changes area and the pathological change of the adjacent brain tissue were observed by optical microscope.

[3] = system: cerebral hemorrhage in rats induced by collagenase; test: ICH model induced by collagenase: brain water content (BWC); assay type: in vivo, Wistar rats
Procedure: (§2) Animals are randomly divided into five groups: sham operation 24 h group; cerebral hemorrhage (Intracerebral Haemorrhage, ICH)+physiological saline group (model); ICH+piperphentonamine hydrochloride (JBTA, 2 mg/kg) group, called as high dose group (h); ICH+piperphentonamine hydrochloride (JBTA, 0.5 mg/kg) group, called as low dose group (1); ICH+nimodipine (Nim, 0.5 mg/kg) group. The last four groups are divided into 4 h, 8 h, 12 h, 24 h as four time subgroups respectively. Physiological saline solution, piperphentonamine hydrochloride and nimodipine are intravenously injected from rat tail before the ICH model is established for 30 minutes, once a day. Injecting slowly, the total amount of drug liquid is controlled in 1 ml/200 g body weight: physiological saline solution also being administered in 1 ml/200 g body weight. Each group has 7 Wistar rats.
Observing the influence of piperphentonamine hydrochloride on the brain water content of intracerebral hemorrhage in rats in 4 h, 8 h, 12 h, 24 h, the animals of the different groups is anesthetized by chloral hydrate at predetermined time point, and decollating and taking the brain rapidly, putting the brain tissue on a filter paper wetted by saline solution to prevent water evaporating. Removing the leptomeninges and blood, cutting and taking the front half portion of brain tissue centered by the hole for the insertion needle, weighing precisely (accurate to 0.1 mg). It is controlled in 5 min to take the brain to finish weigh. Then putting in 95° C. constant temperature oven for 24 h, weighing the dry weight. The brain water content is calculated according to Blliot formula: BWC=(wet weight−dry weight)/wet weight×100%.
(§3) Divide the animals randomly into five groups: sham operation (sham) 24 h group; ICH+normal saline group (model); ICH+piperphentonamine maleate (4 mg/kg) group, namely high dose group (h); ICH+piperphentonamine maleate (2 mg/kg) group, namely low dose group (1); ICH+nimodipine (0.5 mg/kg) group. The last four groups were divided into four time subgroup of 4 h, 8 h, 12 h and 24 h. Physiological solution, piperphentonamine maleate and nimodipine were injected intravenous from rat tail vein 30 minutes before the ICH model made, once a day. Inject slowly, the total amount of drug liquid was controlled in 1 ml/200 g body weight: normal saline was also administered in 1 ml/200 g body weight. Each group has seven Wistar rats.

[4] = system: cerebral hemorrhage of rats (autologous blood); test: cerebral hemorrhage by autologous blood into caudate nucleus: edema (dry-wet weight) and forelimb placement; assay type: in vivo, SD rats; settings: local administering 3 h after hemorrhage
Procedure: Adult male SD rats were divided randomly into normal saline group, cerebral hemorrhage group and piperphentonamine maleate group. A model of cerebral hemorrhage was established by the methods of injecting 50 μl autologous blood into caudate nucleus of rats, wherein, the position of caudate nucleus was determined according to “the rat cerebral in stereotaxic atlas”: the injection position is at the point of front to anterior fontanelle of 0.2 mm, right to the sagittal suture of 3.0 mm, depth of 6.3 mm. The change of cerebral edema was observed by the dry-wet weight method; the behavior was observed by forelimb placement experiment. The cerebral hemorrhage group was only injected without medicine, with the treatment time of at 3 h after hemorrhage. The edema measurement time was in 1, 2, 3, 7, 14 days after hemorrhage, the behavioral observation time phase was in 1, 2, 3, 7, 14, 28 days after hemorrhage, each group of each time phase had 6 rats.

[5] = system: cerebral hemorrhage in rats induced by collagenase; test: cerebral hemorrhage (ICH) model induced by collagenase: neurology score; assay type: in vivo, Wistar rats
Procedure: as §2
The specific steps are as following: after the experimental rats are anesthetized by injecting chloral hydrate (350 mg/kg) in intraperitoneal, and being supinely immobilized in a stereotaxic instrument, and make the rat anterior fontanelle and posterior fontanelle in the same plane according to localization method reported by BAO Xinmin, etc. Being locally disinfected by iodine, incising in the midmost of scalp, scissoring the periosteum, exposing the anterior fontanelle, drilling a 1 mm diameter hole with thickness close to duramater in 3 mm left to the midline by number five needle. Inserting needle along the hole by the micro syringe fixed on a stereotaxic, the depth of needle insertion is 5.8 mm (i.e., the caudate nucleus position), slowly injecting collagenase VI 0.5 U. Injection time is 3 min, keeping for 5 min after injection, then pull the needle out, suturing the skin, and putting the rat into cage and feed. Inserting the needle and not injecting drugs in sham operation group, the remaining operations is the same as the above.
After animals wake up, scoring nerve function defect of each group immediately according to the grading classification standards of nerve defect reported by Bedersog (litter improved).
Choosing the animals with the score of 3 and more into the experiment, the animals are bred in different cages, eat and drink normally. Temperature is controlled in 20 to 25° C., score in 4 h, 8 h, 12 h, 24 h after establishment of the model.
as §3

[6] = system: cerebral hemorrhage in rats induced by collagenase; test: ICH model induced by collagenase: NE in brain tissue by ELISA; assay type: in vivo, Wistar rats; settings: ICH rat brain tissue
From the text: as §1, with “brains” for “brain take”, “NE activity using ELISA” for “content of NO by nitrate reductase”

[7] = system: cerebral edema of mice caused by closed cerebral trauma; test: closed cerebral trauma model of mice, brain water content; assay type: in vivo, Kunming mice; settings: 2 mg/kg iv, brain taken after 24 h
Procedure: There were 10 mice in each group.
The closed cerebral trauma model of mice being established after fasting for 16 hours, administering intravenously to each group, striping and taking the brain of mouse after 24 hours, weighing the wet weight, and drying at 70° C. for 24 hours, then weighing the dry weight, and calculating brainwater content; the brain water content which is higher than normal values indicates the cerebral edema.
The grouping method, administer method and model preparation were referred to example 2.

[8] = system: cultured cerebral neurons; test: NMDA induces neuron injury in primary cultured neurons; assay type: cell-based, rat; settings: drug 50 mmol/L; NMDA 50 mmol/L, 12 h
[9] = system: human brain disease; test: research in treating human brain diseases (no details); assay type: in vivo
[10] = 2 mg/kg iv 30 min before ICH, 4 h (example 12)
[11] = 2 mg/kg iv 30 min before ICH, 8 h (example 12)
[12] = 2 mg/kg iv 30 min before ICH, 12 h (example 12)
[13] = 2 mg/kg iv 30 min before ICH, 24 h (example 12)
[14] = 4 mg/kg iv 30 min before ICH, 8 h
[15] = 4 mg/kg iv 30 min before ICH, 12 h
[16] = 4 mg/kg iv 30 min before ICH, 24 h

CN(CCC(=O)/C=C/c1ccc(O)cc1)CCc1ccc2c(c1)OCO2.O=C(O)/C=C\C(=O)O [piperphentonamine maleate]
NO ([1]; 2 mg/kg, ICH rat brain tissue (example 12)): 2.16 ± 0.05^Δ μmol/g pro | NO ([1]; 4 mg/kg, ICH rat brain tissue): 1.48 ± 0.03^Δ μmol/g pro | histopathological observation ([2]; large dose (4 mg/kg) pretreatment): obviously reduce tissue edema and inflammatory cell infiltration after cerebral hemorrhage | histopathological observation ([2]; small dose maleate (2 mg/kg) or nimodipine (0.5 mg/kg) in advance): could ease the pathological changes above-mentioned in different levels | brain water content [3, 10]: 62.66 ± 0.66^Δ | brain water content [3, 11]: 63.88 ± 0.55^ΔΔ | brain water content [3, 12]: 64.86 ± 0.59^ΔΔ | brain water content [3, 13]: 66.33 ± 0.5^ΔΔ | brain water content ([3]; 4 mg/kg iv 30 min before ICH, 4 h, in %): 62.19 ± 0.54 | brain water content [3, 14]: 62.53 ± 0.42^Δ** | brain water content [3, 15]: 63.38 ± 0.15^ΔΔ** | brain water content [3, 16]: 64.62 ± 0.58^ΔΔ** | cerebral edema after cerebral hemorrhage [4]: could obviously relieve cerebral edema after cerebral hemorrhage | neural function defect after cerebral hemorrhage (forelimb placement) [4]: improve the neural function defect after cerebral hemorrhage | neurological score [5, 10]: 3.61 ± 0.7 | neurological score [5, 11]: 3.43 ± 0.82 | neurological score [5, 12]: 2.92 ± 0.95 | neurological score [5, 13]: 2.57 ± 1.28 | neurological score ([5]; 4 mg/kg iv 30 min before ICH, 4 h): 3.25 ± 0.59 | neurological score [5, 14]: 3.08 ± 0.95 | neurological score [5, 15]: 1.88 ± 0.64*^Δ | neurological score [5, 16]: 1.37 ± 0.46**^ΔΔ | NE ([6]; high dose group (h), 4 mg/kg): 2.37 ± 0.07^ΔΔ ng/ml | NE ([6]; low dose group (l), 2 mg/kg): 2.78 ± 0.05^ΔΔ ng/ml

piperphentonamine
pathological morphology of cerebral hemorrhage ([2]; small doses (0.5 mg/kg) in advance): could ease the pathological changes above-mentioned in different levels | water content of cerebra (%) [7]: 78.31 ± 5.72 % | mortality [8]: 30% | treating human brain and other diseases [9]: obvious effect and clinical significance

— patent US8916607B2, “Use of piperphentonamine or salts thereof in manufacture of medicaments for treating brain diseases” (Guangzhou Municipal Zhongwei Biotechnology Limited Company, priority 2009, dated 2014)
